We go through three molecules from paper PMC2878666 (Biochemistry, 2009).

Structures are written as SMILES.

The IC50 is the concentration at which inhibition is half-maximal. A higher IC50 goes with lower potency.

Assay [1] has as its target T1, nicotinic acetylcholine receptor (Torpedo nAChR, α2βγδ), α subunit (Tetronarce californica, UniProt P02710+P02712+P02714+P02718). Description: [3H]PCP radioligand displacement. The assay is classed as binding. In general terms: Loss of bound radioactivity is the signal in a displacement assay; it reports binding, not function.
The target of assay [2] is T1, nicotinic acetylcholine receptor (Torpedo nAChR, α2βγδ), α subunit. Description: [3H]PCP radioligand displacement, centrifugation assay. The assay is classed as binding.

T1 sequence (P02710 25-461): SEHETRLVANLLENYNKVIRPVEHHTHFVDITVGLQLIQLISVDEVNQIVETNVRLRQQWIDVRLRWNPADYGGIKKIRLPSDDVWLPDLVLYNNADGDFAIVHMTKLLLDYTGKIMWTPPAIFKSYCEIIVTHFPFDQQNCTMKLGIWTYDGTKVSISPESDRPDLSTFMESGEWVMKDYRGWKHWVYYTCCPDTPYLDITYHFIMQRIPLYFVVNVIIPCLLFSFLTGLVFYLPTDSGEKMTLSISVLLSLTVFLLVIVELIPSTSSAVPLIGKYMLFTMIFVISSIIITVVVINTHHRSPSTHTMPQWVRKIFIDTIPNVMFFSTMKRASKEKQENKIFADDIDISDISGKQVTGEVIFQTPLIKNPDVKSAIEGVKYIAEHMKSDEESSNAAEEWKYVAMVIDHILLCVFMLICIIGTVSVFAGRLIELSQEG
T1 sequence (P02712 25-493): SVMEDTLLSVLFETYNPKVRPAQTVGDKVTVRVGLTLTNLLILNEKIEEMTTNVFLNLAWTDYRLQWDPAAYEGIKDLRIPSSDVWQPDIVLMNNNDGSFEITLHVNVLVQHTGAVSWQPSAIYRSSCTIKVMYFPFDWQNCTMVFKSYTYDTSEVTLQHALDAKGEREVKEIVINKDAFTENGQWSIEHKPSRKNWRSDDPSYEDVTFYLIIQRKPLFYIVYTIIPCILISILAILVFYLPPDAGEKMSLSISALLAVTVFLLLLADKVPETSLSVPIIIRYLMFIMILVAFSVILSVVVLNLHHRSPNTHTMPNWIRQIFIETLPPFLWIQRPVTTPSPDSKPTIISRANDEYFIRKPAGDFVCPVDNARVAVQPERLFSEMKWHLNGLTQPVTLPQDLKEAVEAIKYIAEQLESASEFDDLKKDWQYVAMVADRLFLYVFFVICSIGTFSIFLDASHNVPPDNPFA
T1 sequence (P02714 18-506): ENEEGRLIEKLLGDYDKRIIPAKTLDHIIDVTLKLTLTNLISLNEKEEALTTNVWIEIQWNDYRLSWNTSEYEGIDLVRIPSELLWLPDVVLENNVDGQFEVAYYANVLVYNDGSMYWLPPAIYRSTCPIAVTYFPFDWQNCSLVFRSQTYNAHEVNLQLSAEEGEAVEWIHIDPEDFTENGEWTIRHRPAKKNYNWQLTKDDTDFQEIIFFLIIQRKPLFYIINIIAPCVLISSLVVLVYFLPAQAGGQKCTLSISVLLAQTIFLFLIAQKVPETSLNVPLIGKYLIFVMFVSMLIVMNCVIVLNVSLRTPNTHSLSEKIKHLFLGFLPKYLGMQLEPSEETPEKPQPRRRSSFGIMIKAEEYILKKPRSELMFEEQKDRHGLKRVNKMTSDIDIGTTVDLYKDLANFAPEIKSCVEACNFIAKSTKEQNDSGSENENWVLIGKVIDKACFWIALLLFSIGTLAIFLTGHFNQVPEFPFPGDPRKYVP
T1 sequence (P02718 22-522): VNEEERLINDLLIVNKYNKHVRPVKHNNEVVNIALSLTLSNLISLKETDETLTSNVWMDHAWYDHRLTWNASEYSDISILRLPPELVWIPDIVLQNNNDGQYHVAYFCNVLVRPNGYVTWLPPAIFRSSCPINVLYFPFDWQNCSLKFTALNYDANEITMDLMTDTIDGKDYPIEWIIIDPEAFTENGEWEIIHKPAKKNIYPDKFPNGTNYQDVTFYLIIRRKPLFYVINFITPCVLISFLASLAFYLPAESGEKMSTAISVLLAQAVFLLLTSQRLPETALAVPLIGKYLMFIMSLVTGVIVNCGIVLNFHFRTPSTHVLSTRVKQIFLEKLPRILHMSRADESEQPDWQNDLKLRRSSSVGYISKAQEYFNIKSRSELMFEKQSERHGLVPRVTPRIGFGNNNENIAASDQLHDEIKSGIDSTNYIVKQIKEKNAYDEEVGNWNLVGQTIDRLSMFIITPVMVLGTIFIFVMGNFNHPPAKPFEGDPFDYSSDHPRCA

In assay [1], `CN(C)CCCN1c2ccccc2Sc2ccc(Cl)cc21` [CPZ, chlorpromazine] had a 50% inhibitory concentration (IC50) of 2.3 ± 0.4 µM.
Regarding `CN(C)CCCN1c2ccccc2[S+]([O-])c2ccc(Cl)cc21` (stereo not drawn) [CPZsulfoxide, chlorpromazine sulfoxide], the IC50 in assay [2] is 69 ± 6 µM.
In assay [2], `CN(C)CCCN1c2ccccc2Sc2ccccc21` [promazine] gave an IC50 of 3.5 ± 0.2 µM.
